Common to all, as to parameters: species or system SD rats
In one experiment the target is α1 adrenalin receptor. Briefly: Binding test on [3H] prazosin, cerebral cortex receptor fraction. The following applies: rat cerebral cortex receptor fraction, about 0.2 nM [3H] prazosin, room temperature 60 min; read-out: α 1.
The next experiment addresses T1, serotonin 1A receptor (Rattus norvegicus, UniProt P19327).
T1 construct: To the receptor fraction of the hippocampus were added a test compound and 0.5 nM of [^3H]; 8-hydroxy-dipropylaminotetralin; from tissue; host or cells: rat hippocampus membrane fraction
T1 sequence (P19327 1-422): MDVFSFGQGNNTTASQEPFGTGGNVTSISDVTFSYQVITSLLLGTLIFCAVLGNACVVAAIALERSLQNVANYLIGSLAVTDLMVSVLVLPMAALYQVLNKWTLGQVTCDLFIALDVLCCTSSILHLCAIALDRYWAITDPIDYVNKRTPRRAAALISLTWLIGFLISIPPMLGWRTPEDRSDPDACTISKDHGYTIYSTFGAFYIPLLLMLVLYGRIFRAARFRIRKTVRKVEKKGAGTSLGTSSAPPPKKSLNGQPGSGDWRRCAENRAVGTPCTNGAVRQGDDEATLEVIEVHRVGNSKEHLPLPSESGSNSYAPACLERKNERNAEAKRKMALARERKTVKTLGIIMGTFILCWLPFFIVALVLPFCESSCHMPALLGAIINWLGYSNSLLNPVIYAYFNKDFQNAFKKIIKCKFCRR
Briefly: Binding test on [3H] 8-hydroxy-dipropylaminotetralin, hippocampus receptor fraction. Conditions: rat hippocampus receptor fraction, 0.5 nM [3H] 8-OH-DPAT, room temperature 30 min; read-out: 5HT1.

A further experiment has as its target T2, serotonin 2 receptor (Rattus norvegicus, UniProt P14842).
T2 construct: To the receptor fraction of the cerebral cortex were added a test compound and 0.3 nM of [^3H] ketanserin; from tissue; host or cells: rat cerebral cortex membrane fraction
The experiment is described as follows: Binding test on [3H] ketanserin, cerebral cortex receptor fraction. The following applies: 0.3 nM [3H] ketanserin, 37° C. 15 min, read-out: 5HT2.

Structures are written as SMILES. Where a name gives a salt, the structure may show the parent alone.

T2 sequence (P14842 whole entry): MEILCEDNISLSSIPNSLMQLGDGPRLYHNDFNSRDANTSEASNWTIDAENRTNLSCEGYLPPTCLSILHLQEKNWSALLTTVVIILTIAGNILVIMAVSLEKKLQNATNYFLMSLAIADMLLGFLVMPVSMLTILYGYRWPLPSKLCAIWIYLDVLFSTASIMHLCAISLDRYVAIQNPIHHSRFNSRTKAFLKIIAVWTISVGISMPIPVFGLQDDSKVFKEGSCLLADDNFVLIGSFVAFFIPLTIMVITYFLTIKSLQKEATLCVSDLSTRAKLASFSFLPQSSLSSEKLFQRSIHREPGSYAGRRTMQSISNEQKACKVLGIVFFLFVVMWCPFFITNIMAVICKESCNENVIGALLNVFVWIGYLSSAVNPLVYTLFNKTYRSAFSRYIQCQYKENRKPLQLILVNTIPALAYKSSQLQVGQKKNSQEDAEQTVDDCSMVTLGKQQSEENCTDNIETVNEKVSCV
Description for serotonin 1A receptor: (1) Binding test on serotonin 1A, serotonin 2 and α1 adrenalin receptors
The following reagents were employed in this test. • 1) Serotonin binoxalate (5-HT binoxalate, mfd. by Sigma Chemical Co.). • 2) Methysergide maleate (mfd. by RBI).
As radioisotope-labeled compounds, use was made of the following reagents (mfd. by NEN). • 3) [^3H] 8-Hydroxy-dipropylaminotetralin (8-OH-DPAT). • 4) [^3H]
Methysergide maleate was dissolved in distilled water before using.
(§1) Use was made of SD rats aged 6 to 8 weeks.
The rats were sacrificed by dcapitation to extirpate the cerebra. The hippocampus and cortex were separated therefrom and employed in the binding tests respectively on the serotonin 1A receptor and the serotonin 2 receptor.
The hippocampus was mixed with 50 times (on the wet weight basis) as much as 0.32 M sucrose solution while the cortex was mixed with 10 times as much the same solution. Each mixture was homogenized by using a Teflon glass homogenizer and centrifuged as 1,000× g for 10 min. The supernatant thus obtained was further centrifuged at 20,000× g for 20 min. The obtained precipitate was re-suspended in 50 times (based on the initial wet weight; in the case of the hippocampus) or 10 times (in the case of the cortex) as much a 50 Tris hydrochloride (pH 7.4) and incubated at room temperature for 30 min. After centrifuging at 20,000× g for 20 min, the obtained precipitate was further suspended and centrifuged twice each in the same manner. The precipitate thus obtained was suspended in 100 times (based on the initial wet weight; in the case of the hippocampus) or 20 times (in the case of the cortex) as much a 50 mM Tris hydrochloride solution (pH 7.4) to thereby give a receptor fraction. This receptor fraction was stored at −80° C. until using.
To the receptor fraction of the hippocampus were added a test compound and 0.5 nM of [^3H] 8-hydroxy-dipropylaminotetralin and the resultant mixture was incubated at room temperature for 30 min. Next, it was filtered through a glass filter with the use of a cell harvester. After washing the glass filter with 50 mM Tris hydrochloride (pH 7.4), the radioactivity of the receptor was measured with a liquid scintillation counter. The binding detected in the presence of 10 μM of serotonin binoxalate was referred to as the nonspecific binding.
IC50 was calculated by the probit method, while Ki was determined in accordance with the following formula: Ki=IC50(1+c/Kd) wherein c represents the concentration of the radioisotope-labeled compound, and Kd represents the dissociation constant of the radioisotope-labeled compound with respect to the receptor determined by Scatchard's analysis.
Description for α1 adrenalin receptor: As radioisotope-labeled compounds, use was made of the following reagents (mfd. by NEN). • 3) [^3H] […] Prazosin.
as §1
The rats were sacrificed by dcapitation to extirpate the cerebra.
Each mixture was homogenized by using a Teflon glass homogenizer and centrifuged as 1,000× g for 10 min. The supernatant thus obtained was further centrifuged at 20,000× g for 20 min. […] After centrifuging at 20,000× g for 20 min, the obtained precipitate was further suspended and centrifuged twice each in the same manner. […] This receptor fraction was stored at −80° C. until using.
IC50 was calculated by the probit method, while Ki was determined in accordance with the following formula: Ki=IC50(1+c/Kd) wherein c represents the concentration of the radioisotope-labeled compound, and Kd represents the dissociation constant of the radioisotope-labeled compound with respect to the receptor determined by Scatchard's analysis. (Binding test on [^3H] prazosin)
To the receptor fraction of the cerebral cortex were added a test compound and about 0.2 nM of [^3H] prazosin and the resultant mixture was incubated at room temperature for 60 min. Next, it was filtered through a glass filter with the use of a cell harvester. After washing the glass filter with 50 mM Tris hydrochloride (pH 7.4), the radioactivity of the receptor was measured with a liquid scintillation counter. The binding detected in the presence of 10 μM of phentolamine was referred to as the nonspecific binding.

In the case of `CCN1CCN(c2nc(-c3ccc(OCCC#N)cc3)cc3ccccc23)CC1` [Example 52, 3-[4-(2-Cyanoethoxy)Phenyl]-1-(4-Ethylpiperazin-1-Yl)Isoquinoline Hydrochloride], the values for the Ki at α1 adrenalin receptor, on serotonin 1A receptor and at serotonin 2 receptor were 0.555 µM, 0.0235 µM and 0.0006 µM, respectively.
Taken in the same sequence, the figures for `CCN1CCN(c2nc(-c3ccc4c(c3)CC(CO)C4)cc3ccccc23)CC1` (stereo not shown) [Example 393, 1-(4-Ethylpiperazin-1-yl)-3-(2-Hydroxymethylindan-5-yl)Isoquinoline Dihydrochloride] were 0.242 µM, 0.0131 µM and 0.0018 µM.
Taken in the same sequence, the figures for `CCN1CCN(c2nc(NCc3ccc(OC)cc3)cc3ccccc23)CC1` [Example 220, 1-(1-ethylpiperazin-4-yl)-3-(4-methoxybenzylamino)isoquinoline oxalate] were 3.8 µM, 0.00053 µM and 0.00201 µM.
The corresponding values for `CCN1CCN(c2nc(-c3ccc(N4CCOCC4)cc3)cc3ccccc23)CC1` [Example 160, 3-[4-(4-morpholinyl)phenyl]-1-(4-ethylpiperazin-1-yl)isoquinoline dihydrochloride] are 0.536 µM, 0.0222 µM and 0.0007 µM.
For the compound `CCN1CCN(c2nc(-c3ccc(OCCOC)nc3)cc3ccccc23)CC1` [Example 126, 1-(1-Ethylpiperazin-4-yl)-3-[2-(2-Methoxyethoxy)Pyridin-5-yl]Isoquinoline], the Ki on α1 adrenalin receptor was 0.382 µM; at serotonin 1A receptor, 0.0264 µM; on serotonin 2 receptor it was 0.0057 µM.
The corresponding values for `CCN1CCN(c2nc(C#Cc3ccccn3)cc3ccccc23)CC1` [Example 179, 1-(1-Ethylpiperazin-4-Yl)-3-(2-Pyridyl)Ethynylisoquinoline Oxalate] are 0.208 µM, 0.0053 µM and 0.0004 µM.
The corresponding values for `CCN1CCN(c2nc(-c3ccc(CCCO)c(OC)c3)cc3ccccc23)CC1` [Example 33, 1-(4-ethylpiperazin-1-yl)-3-[4-(3-hydroxypropyl)-3-methoxyphenyl]isoquinoline hydrochloride] are 0.758 µM, 0.0079 µM and 0.0109 µM.
The corresponding values for `CCN1CCN(c2nc(-c3ccc(OC)cc3OC)cc3ccccc23)CC1` [Example 12, 3-(2,4-dimethoxyphenyl)-1-(4-ethylpiperazin-1-yl)isoquinolin Dihydrochloride] are 4.11 µM, 0.14 µM and 0.00532 µM.
As for `CCN1CCN(c2nc(-c3ccc(CCCO)c(C#N)c3)cc3ccccc23)CC1` [Example 32, 3-[3-cyano-4-(3-hydroxypropyl)phenyl]-1-(4-ethylpiperazin-1-yl)isoquinoline hydrochloride], the Ki on α1 adrenalin receptor came out at 0.5 µM; on serotonin 1A receptor it was 0.0101 µM; on serotonin 2 receptor, 0.0078 µM.
The corresponding values for `CCN1CCN(c2nc(-c3ccc(CCC(C)O)cc3)cc3ccccc23)CC1` (stereo not shown) [Example 22, 1-(4-ethylpiperazin-1-yl)-3-[4-(3-hydroxybutyl)phenyl]isoquinoline oxalate] are 3.1 µM, 0.0094 µM and 0.0015 µM.
For the compound `CCN1CCN(c2nc(-c3ccc(CCCO)c(F)c3)cc3ccccc23)CC1` [Example 29, hydrochloride], the Ki was 0.668 µM at α1 adrenalin receptor, 0.0096 µM on serotonin 1A receptor and 0.0035 µM at serotonin 2 receptor.
Taken in the same sequence, the figures for `CCN1CCN(c2nc(-c3ccc(CCCCO)cc3)cc3ccccc23)CC1` [Example 23, 3-[4-(4-hydroxybutyl)phenyl]-1-(4-ethylpiperazin-1-yl)isoquinoline hydrochloride] were 1.25 µM, 0.0168 µM and 0.0064 µM.
Taken in the same sequence, the figures for `CCN1CCN(c2nc(-c3ccccn3)cc3ccccc23)CC1` [Example 123, 1-(4-Ethylpiperazin-1-yl)-3-(2-Pyridyl)Isoquinoline Dihydrochloride] were 0.553 µM, 0.034 µM and 0.0291 µM.
Taken in the same sequence, the figures for `CCN1CCN(c2nc(CCCCOCc3ccccc3)cc3ccccc23)CC1` [Example 1, 3-(4-benzyloxybutyl)-1-(4-ethylpiperazin-1-yl)isoquinoline Dihydrochloride] were greater than 2 µM, 0.0212 µM and 0.0364 µM.
Regarding `CCN1CCN(c2nc(-c3ccc(OCCO)cc3)cc3ccsc23)CC1` [Example 259, 7-(4-ethylpiperazin-1-yl)-5-(4-hydroxyethoxyphenyl)thieno[2,3-c]pyridine Hydrochloride], the Ki at α1 adrenalin receptor was 0.405 µM; on serotonin 1A receptor it was 0.00926 µM; at serotonin 2 receptor, 0.0189 µM.
`CCN1CCN(c2nc(-c3ccc(CCCOC)nc3)cc3ccccc23)CC1` [Example 139, 1-(1-Ethylpiperazin-4-yl)-3-[2-(3-Methoxypropyl)Pyridin-5-yl]Isoquinoline Oxalate]: the Ki at α1 adrenalin receptor came out at 0.374 µM; at serotonin 1A receptor it was 0.0027 µM; on serotonin 2 receptor, 0.0051 µM.
Taken in the same sequence, the figures for `CCN1CCN(c2nc(-c3ccc(C(C)O)cc3)cc3sccc23)CC1` (stereo not shown) [Example 281, 4-(4-ethylpiperazin-1-yl)-6-[4-(1-hydroxyethyl)phenyl]thieno[3,2-c]pyridine oxalate] were 0.345 µM, 0.015 µM and 0.0169 µM.
The corresponding values for `CCN1CCN(c2nc(-c3ccc(OCCF)cc3)cc3ccccc23)CC1` [Example 45, 1-(4-Ethylpiperazin-1-Yl)-3-[4-(2-Fluoroethoxy)Phenyl]Isoquinoline Dihydrochloride] are 1.22 µM, 0.045 µM and 0.0011 µM.
`CCN1CCN(c2nc(-c3ccc(CCC(C)O)cc3)cc3ccoc23)CC1` (stereo not shown) [Example 300, 7-(1-ethylpiperazin-4-yl)-5-[4-(3-hydroxybutyl)phenyl]furo[2,3-c]pyridine dihydrochloride]: the Ki is greater than 2 µM at α1 adrenalin receptor, 0.00049 µM at serotonin 1A receptor and 0.00906 µM on serotonin 2 receptor.
Take `COc1ccc(-c2cc3ccccc3c(N3CCN(CCO)CC3)n2)cc1` [Example 242, 1-[4-(2-hydroxyethyl)piperazin-1-yl]-3-(4-methoxyphenyl)isoquinoline Dihydrochloride]: the Ki at α1 adrenalin receptor came to 1.79 µM.
Still for that read-out and setting: in the case of `CCN1CCN(c2nc(-c3ccc(OCCO)cc3)cc3sccc23)CC1` [Example 286, dihydrochloride] it was 0.305 µM.
Take `CCCC(O)c1ccc(-c2cc3ccccc3c(N3CCN(CC)CC3)n2)cc1` (stereo not shown) [Example 21, 1-(4-ethylpiperazin-1-yl)-3-[4-(1-hydroxybutyl)phenyl]isoquinoline oxalate]: the values for the Ki on α1 adrenalin receptor, on serotonin 1A receptor and on serotonin 2 receptor were 0.636 µM, 0.0172 µM and 0.0043 µM, respectively.
Taken in the same sequence, the figures for `CCC(O)c1ccc(-c2cc3ccccc3c(N3CCN(CC)CC3)n2)cc1` (stereo not shown) [Example 19, 1-(4-ethylpiperazin-1-yl)-3-[4-(1-hydroxypropyl)phenyl]isoquinoline hydrochloride] were 0.373 µM, 0.0069 µM and 0.0016 µM.
For the compound `CCN1CCN(c2nc(-c3ccc(CCC(C)(C)O)c(F)c3)cc3ccccc23)CC1` [Example 416, 1-(4-ethylpiperazin-1-yl)-3-[4-(3-hydroxy-3-methylbutyl)-3-fluorophenyl]isoquinoline], the Ki was determined as 0.174 µM at α1 adrenalin receptor, 0.0312 µM at serotonin 1A receptor and 0.0007 µM at serotonin 2 receptor.
As for `CCCC(=O)Nc1ccc(-c2cc3ccccc3c(N3CCN(CC)CC3)n2)cc1` [Example 70, 3-(4-Propylcarbonylaminophenyl]-1-(4-Ethylpiperazin-1-Yl)Isoquinoline Hydrochloride], the Ki on α1 adrenalin receptor was found to be 1.26 µM; on serotonin 1A receptor, 0.0233 µM; on serotonin 2 receptor, 0.0055 µM.
The corresponding values for `CCN1CCN(c2nc(-c3ccc(CCCO)cc3)cc3ccccc23)CC1` [Example 20, 1-(4-ethylpiperazin-1-yl)-3-[4-(3-hydroxypropyl)phenyl]isoquinoline hydrochloride] are 0.868 µM, 0.0145 µM and 0.0026 µM.
Taken in the same sequence, the figures for `CCN1CCN(c2nc(-c3ccc(OCCOC)cc3)cc3ccccc23)CC1` [Example 42, 1-(4-ethylpiperazin-1-yl)-3-[4-(2-methoxyethoxy)phenyl]isoquinoline dihydrochloride] were 2.45 µM, 0.0331 µM and 0.0044 µM.
`CCN1CCN(c2nc(CCc3ccc(OCCO)cc3)cc3ccccc23)CC1` [Example 109, 1-(1-Ethylpiperazin-4-yl)-3-[4-(2-hydroxyethoxy)phenethyl]isoquinoline]: the Ki at α1 adrenalin receptor was greater than 2 µM.
Same read-out and setting: in the case of `CCCN1CCN(c2nc(-c3ccc(OCC(C)(C)O)cc3)cc3sccc23)CC1` [Example 289, 6-[4-(2-methyl-2-hydroxypropoxy)phenyl]-4-(4-propylpiperazin-1-yl)thieno[3,2-c]pyridine hydrochloride] it was 1.31 µM.

These data come from patent US6875761B2 (Eisai Co., Ltd., priority 1997, dated 2005).
